Assay: Inhibitory activity against Protein kinase C beta isoform (PKC) from pig spleen.

| SMILES | IC50 |
| --- | --- |
| N=C(N)NCCC[C@H](NC(=O)[C@H](CCCNC(=N)N)NC(=O)[C@H](CCCNC(=N)N)NC(=O)[C@H](CCCNC(=N)N)NC(=O)[C@H](CCCNC(=N)N)NC(=O)[C@H](CCCNC(=N)N)NC(=O)CCCNC(=O)[C@H]1OC(n2cnc3c(N)ncnc32)[C@H](O)[C@@H]1O)C(=O)O (stereo partly specified) | 1500 nM |
| N=C(N)NCCC[C@H](NC(=O)[C@H](CCCNC(=N)N)NC(=O)[C@H](CCCNC(=N)N)NC(=O)[C@H](CCCNC(=N)N)NC(=O)[C@H](CCCNC(=N)N)NC(=O)[C@H](CCCNC(=N)N)NC(=O)CCNC(=O)[C@H]1OC(n2cnc3c(N)ncnc32)[C@H](O)[C@@H]1O)C(=O)O (stereo partly specified) | 3000 nM |
| C[C@H](NC(=O)CCNC(=O)CCNC(=O)[C@H]1OC(n2cnc3c(N)ncnc32)[C@H](O)[C@@H]1O)C(=O)N[C@@H](CCCNC(=N)N)C(=O)N[C@@H](CCCNC(=N)N)C(=O)N[C@@H](CCCNC(=N)N)C(=O)N[C@@H](CCCNC(=N)N)C(=O)N[C@@H](CCCNC(=N)N)C(=O)N[C@@H](CCCNC(=N)N)C(=O)O (stereo partly specified) | 2800 nM |
| CC(=O)NCCCCCC(=O)N[C@@H](CCCN=C(N)N)C(=O)N[C@@H](CCCNC(=N)N)C(=O)N[C@@H](CCCNC(=N)N)C(=O)N[C@@H](CCCNC(=N)N)C(=O)N[C@@H](CCCNC(=N)N)C(=O)N[C@@H](CCCN=C(N)N)C(=O)O [(R)-2-{(R)-2-[2-((R)-2-{(R)-2-[2-(6-Acetylamino-hexanoylamino)-5-guanidino-pentanoylamino]-5-guanidino-pentanoylamino}-5-guanidino-pentanoylamino)-5-guanidino-pentanoylamino]-5-guanidino-pentanoylamino}-5-guanidino-pentanoic acid] | > 100000 nM |
| C[C@H](NC(=O)C[C@H](NC(=O)C[C@H](NC(=O)[C@H]1O[C@@H](n2cnc3c(N)ncnc32)[C@H](O)[C@@H]1O)C(=O)O)C(=O)O)C(=O)N[C@@H](CCCNC(=N)N)C(=O)N[C@@H](CCCNC(=N)N)C(=O)N[C@@H](CCCNC(=N)N)C(=O)N[C@@H](CCCNC(=N)N)C(=O)N[C@@H](CCCNC(=N)N)C(=O)N[C@@H](CCCNC(=N)N)C(=O)O | 27000 nM |
| N=C(N)NCCC[C@H](NC(=O)[C@H](CCCNC(=N)N)NC(=O)[C@H](CCCNC(=N)N)NC(=O)[C@H](CCCNC(=N)N)NC(=O)[C@H](CCCNC(=N)N)NC(=O)[C@H](CCCNC(=N)N)NC(=O)CNC(=O)[C@H]1OC(n2cnc3c(N)ncnc32)[C@H](O)[C@@H]1O)C(=O)O (stereo partly specified) | 10000 nM |
